From patent US10836725B2, “Modulators of the integrated stress pathway” (Calico Life Sciences LLC, priority 2016, dated 2020)

Test system: ATF4 luciferase reporter
Test: ATF4-Luc assay in HEK293T cells carrying the ATF4 luciferase reporter (in vitro model of VWMD)
Format: cell-based, human
Conditions: Homo sapiens, HEK-293T, 1 μg/mL tunicamycin, 7 hours, luminescence (One Glo)
Description: In order to test exemplary compounds of the invention in a cellular context, a stable VWMD cell line was first constructed. The ATF4 reporter was prepared by fusing the human full-length ATF4 5′-UTR (NCBI Accession No. BC022088.2) in front of the firefly luciferase (FLuc) coding sequence lacking the initiator methionine as described in Sidrauski et al (eLife 2013). The construct was used to produce recombinant retroviruses using standard methods and the resulting viral supernatant was used to transduce HEK293T cells, which were then subsequently selected with puromycin to generate a stable cell line.
HEK293T cells carrying the ATF4 luciferase reporter were plated on polylysine coated 384-well plates (Greiner Bio-one) at 30,000 cells per well. Cells were treated the next day with 1 μg/mL tunicamycin and 200 nM of a compound of Formula (I) for 7 hours. Luminescence was measured using One Glo (Promega) as specified by the manufacturer. Cells were maintained in DMEM with L-glutamine supplemented with 10% heat-inactivated FBS (Gibco) and Antibiotic-Antimycotic solution (Gibco).
Table 2 below summarizes the EC50 data obtained using the ATF4-Luc assay for exemplary compounds of the invention.

| Structure (SMILES) | EC50 |
| --- | --- |
| O=C(COc1ccc(Cl)c(F)c1)NC12CCC(C(=O)NCc3ccc(Cl)cc3)(CC1)C(O)C2 (stereo not shown) [Compound 132, 4-[2-(4-chloro-3-fluorophenoxy)acetamido]-N-[(4-chlorophenyl)methyl]-2-hydroxybicyclo[2.2.2]octane-1-carboxamide] | < 250 nM |
| CN(C)c1ccc(CNC(=O)C23CCC(NC(=O)COc4ccc(Cl)c(F)c4)(CC2)CC3O)cc1 (stereo not shown) [Compound 134, 4-[2-(4-chloro-3-fluorophenoxy)acetamido]-N-{[4-(dimethylamino)phenyl]methyl}-2-hydroxybicyclo[2.2.2]octane-1-carboxamide] | < 250 nM |
| O=C(COc1ccc(Cl)c(F)c1)NC12CCC(C(=O)NCc3cccc(C(F)(F)F)c3)(CC1)C(O)C2 (stereo not shown) [Compound 135, 4-[2-(4-chloro-3-fluorophenoxy)acetamido]-2-hydroxy-N-{[3-(trifluoromethyl)phenyl]methyl}bicyclo[2.2.2]octane-1-carboxamide] | < 250 nM |
| O=C(COc1ccc(Cl)c(F)c1)NC12CCC(C(=O)NCc3cccc(OC(F)(F)F)c3)(CC1)C(O)C2 (stereo not shown) [Compound 136, 4-[2-(4-chloro-3-fluorophenoxy)acetamido]-2-hydroxy-N-{[3-(trifluoromethoxy)phenyl]methyl}bicyclo[2.2.2]octane-1-carboxamide] | 500 to 1000 nM |
| CC(C)(C)c1ccc(CNC(=O)C23CCC(NC(=O)COc4ccc(Cl)c(F)c4)(CC2)CC3O)cc1 (stereo not shown) [Compound 137, N-[(4-tert-butylphenyl)methyl]-4-[2-(4-chloro-3-fluorophenoxy)acetamido]-2-hydroxybicyclo[2.2.2]octane-1-carboxamide] | 500 to 1000 nM |
| O=C(COc1ccc(Cl)c(F)c1)NC12CCC(C(=O)NCc3ccccn3)(CC1)C(O)C2 (stereo not shown) [Compound 139] | 1000 to 2000 nM |
| CC(NC(=O)C12CCC(NC(=O)COc3ccc(Cl)c(F)c3)(CC1)CC2O)c1cccnc1 (stereo not shown) [Compound 140, 4-[2-(4-chloro-3-fluorophenoxy)acetamido]-2-hydroxy-N-[1-(pyridin-3-yl)ethyl]bicyclo[2.2.2]octane-1-carboxamide] | > 2000 nM |
| Cc1ccc(CNC(=O)C23CCC(NC(=O)COc4ccc(Cl)c(F)c4)(CC2)CC3O)nc1 (stereo not shown) [Compound 142, 4-[2-(4-chloro-3-fluorophenoxy)acetamido]-2-hydroxy-N-[(5-methylpyridin-2-yl)methyl]bicyclo[2.2.2]octane-1-carboxamide] | 500 to 1000 nM |
| Cc1ccnc(CNC(=O)C23CCC(NC(=O)COc4ccc(Cl)c(F)c4)(CC2)CC3O)c1 (stereo not shown) [Compound 143, 4-[2-(4-chloro-3-fluorophenoxy)acetamido]-2-hydroxy-N-[(4-methylpyridin-2-yl)methyl]bicyclo[2.2.2]octane-1-carboxamide] | < 250 nM |
| O=C(COc1ccc(Cl)c(F)c1)NC12CCC(C(=O)NCc3ccc(OC(F)F)cn3)(CC1)C(O)C2 (stereo not shown) [Compound 146, 4-[2-(4-chloro-3-fluorophenoxy)acetamido]-N-{[5-(difluoromethoxy)pyridin-2-yl]methyl}-2-hydroxybicyclo[2.2.2]octane-1-carboxamide] | < 250 nM |
| O=C(COc1ccc(Cl)c(F)c1)NC12CC(C(=O)NCc3ccc(OC(F)F)cn3)(C1)C2 [Compound 147, 3-[2-(4-chloro-3-fluorophenoxy)acetamido]-N-{[5-(difluoromethoxy)pyridin-2-yl]methyl}bicyclo[1.1.1]pentane-1-carboxamide] | 250 to 500 nM |
| O=C(COc1ccc(Cl)c(Cl)c1)NC12CC(C(=O)NCc3ccc(C(F)(F)F)nc3)(C1)C2 [Compound 150, 3-[2-(3,4-dichlorophenoxy)acetamido]-N-{[6-(trifluoromethyl)pyridin-3-yl]methyl}bicyclo[1.1.1]pentane-1-carboxamide] | < 250 nM |
| Cc1nn(C)cc1CNC(=O)C12CC(NC(=O)COc3ccc(Cl)c(F)c3)(C1)C2 [Compound 152, 3-[2-(4-chloro-3-fluorophenoxy)acetamido]-N-[(1,3-dimethyl-1H-pyrazol-4-yl)methyl]bicyclo[1.1.1]pentane-1-carboxamide] | > 2000 nM |
| O=C(COc1ccc(Cl)c(F)c1)NC12CC(C(=O)NCCc3ccccn3)(C1)C2 [Compound 153, 3-[2-(4-chloro-3-fluorophenoxy)acetamido]-N-[2-(pyridin-2-yl)ethyl]bicyclo[1.1.1]pentane-1-carboxamide] | > 2000 nM |
| Cc1cc(CNC(=O)C23CC(NC(=O)COc4ccc(Cl)c(Cl)c4)(C2)C3)n(C)n1 [Compound 154, 3-[2-(3,4-dichlorophenoxy)acetamido]-N-[(1,3-dimethyl-1H-pyrazol-5-yl)methyl]bicyclo[1.1.1]pentane-1-carboxamide] | > 2000 nM |
| O=C(COc1ccc(Cl)c(F)c1)NC12CC(C(=O)NCc3ccc(C(F)(F)F)cc3)(C1)C2 [Compound 156, 3-[2-(4-chloro-3-fluorophenoxy)acetamido]-N-{[4-(trifluoromethyl)phenyl]methyl}bicyclo[1.1.1]pentane-1-carboxamide] | < 250 nM |
| COc1ccc(CNC(=O)C23CC(NC(=O)COc4ccc(Cl)c(F)c4)(C2)C3)cn1 [Compound 157, 3-[2-(4-chloro-3-fluorophenoxy)acetamido]-N-[(6-methoxypyridin-3-yl)methyl]bicyclo[1.1.1]pentane-1-carboxamide] | > 2000 nM |
| Cc1ccc(OCCNC(=O)C23CC(NC(=O)COc4ccc(Cl)c(F)c4)(C2)C3)cc1C [Compound 158, 3-[2-(4-chloro-3-fluorophenoxy)acetamido]-N-[2-(3,4-dimethylphenoxy)ethyl]bicyclo[1.1.1]pentane-1-carboxamide] | < 250 nM |
| O=C(COc1ccc(Cl)c(F)c1)NC12CC(C(=O)NCc3cccc(OC(F)(F)F)c3)(C1)C2 [Compound 161, 3-[2-(4-chloro-3-fluorophenoxy)acetamido]-N-{[3-(trifluoromethoxy)phenyl]methyl}bicyclo[1.1.1]pentane-1-carboxamide] | > 2000 nM |

Results, then the molecule that gave them:

| EC50 | Structure (SMILES) |
| --- | --- |
| 250 to 500 nM | O=C(COc1ccc(Cl)c(F)c1)NC12CCC(C(=O)NCc3cccc(Cl)c3)(CC1)C(O)C2 (stereo not shown) [Compound 131, 4-[2-(4-chloro-3-fluorophenoxy)acetamido]-N-[(3-chlorophenyl)methyl]-2-hydroxybicyclo[2.2.2]octane-1-carboxamide] |
| < 250 nM | O=C(COc1ccc(Cl)c(F)c1)NC12CCC(C(=O)NCc3ccc(OC(F)(F)F)cc3)(CC1)C(O)C2 (stereo not shown) [Compound 133, 4-[2-(4-chloro-3-fluorophenoxy)acetamido]-2-hydroxy-N-{[4-(trifluoromethoxy)phenyl]methyl}bicyclo[2.2.2]octane-1-carboxamide] |
| < 250 nM | O=C(COc1ccc(Cl)c(F)c1)NC12CCC(C(=O)NCCc3ccc(C(F)(F)F)cc3)(CC1)C(O)C2 (stereo not shown) [Compound 138, 4-[2-(4-chloro-3-fluorophenoxy)acetamido]-2-hydroxy-N-{2-[4-(trifluoromethyl)phenyl]ethyl}bicyclo[2.2.2]octane-1-carboxamide] |
| < 250 nM | N#Cc1ccc(CNC(=O)C23CCC(NC(=O)COc4ccc(Cl)c(F)c4)(CC2)CC3O)nc1 (stereo not shown) [Compound 141, 4-[2-(4-chloro-3-fluorophenoxy)acetamido]-N-[(5-cyanopyridin-2-yl)methyl]-2-hydroxybicyclo[2.2.2]octane-1-carboxamide] |
| > 2000 nM | O=C(COc1ccc(Cl)c(F)c1)NC12CCC(C(=O)NCc3cnccn3)(CC1)C(O)C2 (stereo not shown) [Compound 144] |
| < 250 nM | CN(Cc1ccc(C(F)(F)F)cc1)C(=O)C12CCC(NC(=O)COc3ccc(Cl)c(F)c3)(CC1)CC2O (stereo not shown) [Compound 145, 4-[2-(4-chloro-3-fluorophenoxy)acetamido]-2-hydroxy-N-methyl-N-{[4-(trifluoromethyl)phenyl]methyl}bicyclo[2.2.2]octane-1-carboxamide] |
| < 250 nM | O=C(COc1ccc(Cl)c(Cl)c1)NC12CC(C(=O)NCc3ccc(OC(F)F)cn3)(C1)C2 [Compound 148, 3-[2-(3,4-dichlorophenoxy)acetamido]-N-{[5-(difluoromethoxy)pyridin-2-yl]methyl}bicyclo[1.1.1]pentane-1-carboxamide] |
| 250 to 500 nM | O=C(COc1ccc(Cl)c(F)c1)NC12CC(C(=O)NCc3ccc(C(F)(F)F)nc3)(C1)C2 [Compound 149, 3-[2-(4-chloro-3-fluorophenoxy)acetamido]-N-{[6-(trifluoromethyl)pyridin-3-yl]methyl}bicyclo[1.1.1]pentane-1-carboxamide] |
| > 2000 nM | Cc1cc(CNC(=O)C23CC(NC(=O)COc4ccc(Cl)c(F)c4)(C2)C3)n(C)n1 [Compound 151, 3-[2-(4-chloro-3-fluorophenoxy)acetamido]-N-[(1,3-dimethyl-1H-pyrazol-5-yl)methyl]bicyclo[1.1.1]pentane-1-carboxamide] |
| > 2000 nM | Cc1ccc(CNC(=O)C23CC(NC(=O)COc4ccc(Cl)c(F)c4)(C2)C3)cn1 [Compound 155, 3-[2-(4-chloro-3-fluorophenoxy)acetamido]-N-[(6-methylpyridin-3-yl)methyl]bicyclo[1.1.1]pentane-1-carboxamide] |
| > 2000 nM | Cc1noc(CNC(=O)C23CC(NC(=O)COc4ccc(Cl)c(F)c4)(C2)C3)n1 [Compound 159, 3-[2-(4-chloro-3-fluorophenoxy)acetamido]-N-[(3-methyl-1,2,4-oxadiazol-5-yl)methyl]bicyclo[1.1.1]pentane-1-carboxamide] |
| > 2000 nM | Cc1cc(CNC(=O)C23CC(NC(=O)COc4ccc(Cl)c(F)c4)(C2)C3)c(C)o1 [Compound 160, 3-[2-(4-chloro-3-fluorophenoxy)acetamido]-N-[(2,5-dimethylfuran-3-yl)methyl]bicyclo[1.1.1]pentane-1-carboxamide] |
